For assay [1], the system named is HSC-2-Luc inoculated into tongue. Kind of assay: HSC-2 orthotopic transplantation mouse model. The format is in vivo, nude mice. Particulars: for ILS (%): Compound (1) 0.09 mg/kg.
The subject of assay [2] is microtubule dynamics in U2OS-EB3-AG osteosarcoma cell line. Briefly: Cell-based microtubule dynamics assay. Particulars: 0.5 nM, around 60 minutes after addition. On the procedure: A cell-based microtubule (MT) dynamics assay was conducted with the U2OS-EB3-AG osteosarcoma cell line, in which the fusion protein of EB3 (a microtubule plus end binding protein) and Azami-Green (EB3-AG) was stably expressed. U2OS-EB3-AG cells were culture in RPMI-1640 medium containing 10% FBS, and penicillin-streptomycin, at 37° C. in a humidified 5% C02 atmosphere. The MT dynamics in the live cells can be visualized as the movement of the comet-like structure of EB3-AG. U2OS-EB3-AG cells plated on glass-base culture plates (EZVIEW plate, AGC Techno Glass, Japan) were treated with Compound (1) at the indicated concentration and the microtubule dynamics were monitored by time-lapse imaging using fluorescent microscope with 60-fold magnification oil- immersed objective lens (BZ-X710, KEYENCE, Japan). Higher magnification views of the boxed areas were shown in inlets. When treated with Compound (1) at 0.5 nM (IC50 value for antiproliferative activity in U20S-EB3-AG cells), the comet-like structures became hard to observe at around 60 minutes after the addition of the compound.

Assay [3] concerns COLO-704 subcutaneous xenograft. Kind of assay: COLO-704 xenograft model as monotherapy (FIG. 12). It is filed as in vivo, nude mice. On the procedure: A human ovarian cancer cell line COLO-704, which had been cultured in a RPMI-1640 containing 10% FBS, and penicillin-streptomycin, was adjusted to a concentration of 1×10^8 cells/mL with Hanks' Balanced Salt Solution to prepare a cell suspension. The cell suspension was inoculated in a volume of 100 μL into a subcutaneous part of a right flank of nude mice, 5 weeks of ages (CAnN.Cg- Foxnlnu/CrlCrlj, female, Charles River Laboratories Japan Inc.). Nine days after cell inoculation (Day 1), the shortest diameter and the longest diameter of a tumor in each mouse were measured by using an electronic digital caliper (Digimatic™ caliper, Mitutoyo Corporation), so as to calculate the volume of the tumor in accordance with the following calculation formulae: […]
On the basis of the volumes of tumors obtained on Day 1, the mice were grouped such that averages of the tumor volumes were substantially equal among the groups. The experiment was conducted on groups each consisting of six mice. The test compound was dissolved in DMSO and a solution was stored in the freezer before use. Immediately before the administration, the stock solution was diluted with saline. The test compound in saline was intravenously once-weekly administered at 20 μg/kg, 60 μg/kg, or 180 μg/kg for 2 weeks (on Day 1 and Day 8).

Assay [4] deals with human uterine sarcoma cell line MES-SA xenograft. Kind of assay: MES-SA soft tissue sarcoma xenograft as monotherapy (FIG. 17). It is filed as in vivo, nude mice. Particulars: 180 μg/kg i.v. Day 1 and Day 8. On the procedure: A human uterine sarcoma cell line MES-SA, which had been cultured in an RPMI-1640 containing 10% FBS, and penicillin-streptomycin, was adjusted to a concentration of 2×10^8 cells/mL with Hanks' Balanced Salt Solution to prepare a cell suspension, and the suspension was mixed with Geltrex® (Thermo Fisher Scientific Inc., #A1413202) in a ratio of 1:1 to prepare a cell suspension in a concentration of 1×10^8 cells/mL. The cell suspension was inoculated in a volume of 100 μL into a subcutaneous part of a right flank of nude mice, 6 weeks of ages (CAnN.Cg-Foxnlnu/CrlCrlj, female, Charles River Laboratories Japan Inc.). Six days after cell inoculation (Day 1), the shortest diameter and the longest diameter of a tumor in each mouse were measured by using an electronic digital caliper (Digimatic™ caliper, Mitutoyo Corporation), so as to calculate the volume of the tumor in accordance with the following calculation formulae: […]
On the basis of the volumes of tumors obtained on Day 1, the mice were grouped such that averages of the tumor volumes were substantially equal among the groups. The experiment was conducted on groups each consisting of 6 mice. The test compound was dissolved in DMSO and a solution was stored in the freezer before use. Immediately before the administration, the stock solution was diluted with saline. […]

The test system of assay [5] is human angiosarcoma CTG-2041 tumor fragments. Briefly: CTG-2041 xenograft as monotherapy (FIG. 17). The format is in vivo, mice. The settings on record: 100 μg/kg i.v. Day 1 and Day 8. On the procedure: Tumor fragments of human angiosarcoma CTG-2041 were implanted s.c. in the left flank of female mice. Tumor growth was monitored twice a week using digital caliper, so as to calculate the volume of the tumor in accordance with the following calculation formula: […]
When the volume of tumors reached approximately 200 mm^3, animals are matched by tumor volume into treatment or control groups and dosing initiated on Day 1. Each group was consisted with five mice. Compound (1) was dissolved in DMSO and a solution was stored in the freezer before use. Compound (1) (100 μg/kg) diluted in saline and intravenously injected on Day 1 and Day 8.

Assay [6] relates to human synovial sarcoma cell line HS-SY-II xenograft. Briefly: HS-SY-II xenograft model as monotherapy (FIG. 22). The format is in vivo, nude mice. As to the method: A human synovial sarcoma cell line HS-SY-II, which had been cultured in a DMEM containing 10% FBS, and penicillin-streptomycin, was adjusted to a concentration of 1×10^8 cells/mL with 50% Geltrex (Thermo Fisher Scientific) in Hanks' Balanced Salt Solution to prepare a cell suspension. The cell suspension was inoculated in a volume of 100 μL into a subcutaneous part of a right flank of nude mice, 5 weeks of ages (CAnN.Cg-Foxnlnu/CrlCrlj, female, Charles River Laboratories Japan Inc.). Thirty days after cell inoculation (Day 1), the shortest diameter and the longest diameter of a tumor in each mouse were measured by using an electronic digital caliper (Digimatic™ caliper, Mitutoyo Corporation), so as to calculate the volume of the tumor in accordance with the following calculation formulae: […]
On the basis of the volumes of tumors obtained on Day 1, the mice were grouped such that averages of the tumor volumes were substantially equal among the groups. The experiment was conducted on groups each consisting of six mice. Compound (1) was dissolved in DMSO and a solution was stored in the freezer before use. Immediately before the administration, the stock solution was diluted with saline. The test compound in saline was intravenously once-weekly administered at 90 μg/kg or 180 μg/kg for 2 weeks (on Day 1 and Day 8).

With `C=C1C[C@@H]2CC[C@@]34C[C@H]5O[C@H]6[C@@H](O3)[C@H]3O[C@H](CC[C@@H]3O[C@H]6C5O4)CC(=O)O[C@@H]3[C@@H](C)[C@@H]4O[C@@H]5C[C@]6(C[C@@H]7O[C@]8(C[C@H](C)[C@@H]9O[C@H](CN)[C@H](O)C[C@@H]9O8)C[C@H](C)[C@@H]7O6)O[C@@H]5C[C@@H]4O[C@H]3C[C@H]3O[C@@H](CC[C@@H]1O2)C[C@@H](C)C3=C` (stereo in doubt) [Compound (1)], the bioluminescence signal result in assay [1] (Compound (1) with cetuximab, after Day 14) is “clearly reduced the bioluminescence signal in all mice”. Moreover, in assay [1] (Compound (1)+CTX combination group, n=16), the “survived mice on Day 100” value came to 10. The “ILS (%)” value in assay [1] (single agent, Q7Dx3: cetuximab 5 mg/kg, cisplatin 5 mg/kg) was 238%; in assay [1] (with cetuximab 5 mg/kg, Q7Dx3: cisplatin 5 mg/kg), over 1150%. Also, the “effect on microtubule dynamics (EB3-AG comet-like structures)” value in assay [2] was “suppress the MT dynamics”. Besides, the antitumor effect entry in assay [3] (60 μg/kg i.v. Day 1 and Day 8) is reported as “tumor growth delay”; in assay [3] (180 μg/kg i.v. Day 1 and Day 8), “tumor regression”; in assay [6] (90 μg/kg i.v. Day 1 and Day 8), “tumor growth delay”; in assay [6] (180 μg/kg i.v. Day 1 and Day 8) it was “tumor regression”. The “xenograft tumors on Day 22” value in assay [3] (180 μg/kg i.v. Day 1 and Day 8) was “completely eradicated the xenograft tumors in all mice”. In addition, the antitumor activity entry in assay [4] is “tumor growth delay”; in assay [5], “tumor regression”.

The values above are taken from US20240309014A1, “MACROCYCLIC COMPOUNDS AND USES THEREOF” (President and Fellows of Harvard College, priority 2017, published 2024).
